Assay results as given in PubChem BioAssay AID588757 (Broad Institute, 2011).
Calls of active or inactive are those of the source.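 How the source made its calls: active means compounds whose fitted half-maximal concentration is at most ten times their top valid tested dose; inconclusive means flat fit showing moderate inhibition, or poor fit quality; inactive means the rest.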

Target: Aurora kinase B (Homo sapiens) (UniProt Q96GD4)
Experiment: AURKB enzyme activity inhibitors – biochemical, scintillation, dry powder, counter-screen for STK33 inhibitor project, dose response (AID 588757)
Details: ATP at Km, gamma-32P-ATP, 40 min room temperature, P30 filtermat scintillation counting; for activity change, negative = inhibition: at 3 µM (top of the series)

Sequence of Aurora kinase B (Homo sapiens) (Q96GD4 whole entry, looked up): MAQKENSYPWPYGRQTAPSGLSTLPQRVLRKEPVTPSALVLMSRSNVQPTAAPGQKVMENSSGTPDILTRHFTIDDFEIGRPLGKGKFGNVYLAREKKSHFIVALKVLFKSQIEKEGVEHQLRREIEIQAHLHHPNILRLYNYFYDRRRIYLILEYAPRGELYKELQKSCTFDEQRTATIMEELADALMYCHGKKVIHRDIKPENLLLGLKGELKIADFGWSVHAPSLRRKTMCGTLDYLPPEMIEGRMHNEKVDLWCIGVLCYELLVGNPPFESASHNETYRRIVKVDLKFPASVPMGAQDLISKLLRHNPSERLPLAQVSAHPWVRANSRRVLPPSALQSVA

SMILES | activity change, negative = inhibition | AC50
COC(=O)c1ccc(COc2ccccc2/C=C/C(=O)c2ccc(OCC(=O)O)cc2)cc1 | inactive | 
CCCn1c(NC(=O)c2cccc(S(=O)(=O)N3CCCC3)c2)nc2ccccc21 |  | 170 nM
Cc1ncc(/C=C2\C(=O)Nc3ccccc32)[nH]1 |  | 346 nM
Oc1ccc(Nc2nc(-c3ccccc3O)nc3ccccc23)cc1 |  | 142 nM
CCOc1ccccc1C(=O)Nc1cc(Cl)ccc1O |  | > 3000 nM (inactive)
O=C(Nc1ccccc1-c1nc2ccccc2[nH]c1=O)c1cccs1 | inactive | 
CC(C)n1cnc2c(Nc3cccc(Cl)c3)nc(NCCO)nc21 |  | 1470 nM
O=C(Nc1ccccc1-c1ccccc1)c1ccc(Br)o1 |  | 1660 nM
COc1cc(/C=N/n2c(-c3ccccc3)n[nH]c2=S)ccc1O | inactive | 
CC(=O)N(C)c1ccc(N=Cc2c(O)ccc3ccccc23)cc1 | inactive | 
COc1cc(/C=C2\SC(N)=NC2=O)ccc1O | inactive | 
O=S(=O)(c1cccc2cnccc12)N1CCCNCC1 | inactive | 
Nc1nc(-c2cc(O)ccc2[N+](=O)[O-])cc(-c2ccccc2)c1[N+](=O)[O-] |  | 12.6 nM
COc1cc(C(=O)NC2CCN(C)CC2)ccc1Nc1ncc2c(n1)N(C1CCC(O)CC1)CCC(=O)N2C (centres undefined) | inactive | 
